Patent US20240025906A1 (NEURON23, INC., priority 2022, published 2024)

How the values were obtained:
TYK2 JH2 = biological target: T1, TYK2 JH2 (Homo sapiens, UniProt P29597); assay: TYK2 JH2 binding assay (KINOMEscan KdELECT competitive binding); conditions: TYK2 JH2 domain, KINOMEscan KdELECT (Assay A); read-out: Biochemical TYK2_DiscoverX_JH2_BND_Kd
T1 construct: purchased DiscoverX (KINOMEscan KdELECT service); host or cells: E. coli BL21-derived (T7 phage display) or HEK-293
In short: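 Kd values come from qPCR measurement of kinase retained on an immobilized-ligand resin after 1 h room-temperature competition with compound in an 11-point, 3-fold series.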

[1] = tested on: JAK1/TYK2 pSTAT5 (Tyr694/699) in THP-1 cell line; assay: IFNa-stimulated JAK1/TYK2 pSTAT5 (Tyr694/699) inhibition cellular assay, AlphaLISA; assay type: cell-based; conditions: Homo sapiens; THP-1 cells, IFNa-stimulated pSTAT5 (Tyr694/699), AlphaLISA (Assay B); read-out: Cellular_THP1_IFNa-pSTATS_TYK2
In short: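 THP-1 cells (2e4/well in HBSS) were preincubated with compound (8 points, 6-fold steps from 10000 nM final) for 1 h at 37 °C, then stimulated with IFNa (added at 100 ng/mL) for 30 min. Lysate pSTAT5 was read by AlphaLISA at 615 nm. IC50 came from a 4-parameter fit with bottom 0 and Hill −1.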

T1 sequence (P29597 589-875 limits assumed): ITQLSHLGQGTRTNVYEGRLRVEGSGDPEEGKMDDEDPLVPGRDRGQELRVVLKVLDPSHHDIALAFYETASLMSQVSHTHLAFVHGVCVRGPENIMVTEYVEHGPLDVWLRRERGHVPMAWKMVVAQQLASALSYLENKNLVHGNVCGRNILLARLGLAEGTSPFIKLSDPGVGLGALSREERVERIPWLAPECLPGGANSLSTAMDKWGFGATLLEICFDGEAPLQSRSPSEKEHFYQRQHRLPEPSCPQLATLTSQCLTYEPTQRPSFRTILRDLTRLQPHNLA

Structure (SMILES)	Kd (TYK2 JH2) [nM]	IC50 [1] [nM]
CNc1ncc(C#Cc2cn(C)nn2)c2cc(NC(=O)C3CC3)ncc12 [Example 1007, N-[8-(methylamino)-5-[2-(1-methyltriazol-4-yl)ethynyl]-2,7-naphthyridin-3-yl]cyclopropanecarboxamide]	≤ 100	≤ 500
CNc1ncc(C#Cc2cn(C)cn2)c2cc(NC(=O)[C@H]3C[C@H]3C)ncc12 [Example 1008, (1S,2R)-2-methyl-N-(5-((1-methyl-1H-imidazol-4-yl)ethynyl)-8-(methylamino)-2,7-naphthyridin-3-yl)cyclopropane-1-carboxamide]	≤ 100	≤ 500
CNc1ncc(C#Cc2cn(C)nn2)c2cc(NC(=O)[C@H]3C[C@H]3C)ncc12 [Example 1009]	≤ 100	≤ 500
CNc1ncc(C#Cc2cn(C)c(C)n2)c2cc(NC(=O)[C@H]3C[C@H]3C)ncc12 [Example 1010, (1S,2R)-N-(5-((1,2-dimethyl-1H-imidazol-4-y)ethynyl)-8-(methylamino)-2,7-naphthyridin-3-yl)-2-methylcyclopropane-1-carboxamide]	≤ 100	≤ 500
CNc1ncc(C#Cc2cnc(C)n2C)c2cc(NC(=O)[C@H]3C[C@H]3C)ncc12 [Example 1011]	≤ 100	≤ 500
CNc1ncc(C#Cc2nccc3cc(C)sc23)c2cc(NC(=O)C3CC3)ncc12 [Example 1012, N-(8-(methylamino)-5-((2-methylthieno[2,3-c]pyridin-7-yl)ethynyl)-2,7-naphthyridin-3-yl)cyclopropanecarboxamide]	≤ 100	≤ 500
CNc1ncc(C#Cc2ccc3c(c2)CCC3=O)c2cc(NC(=O)C3CC3)ncc12 [Example 1013, N-(8-(methylamino)-5-((1-oxo-2,3-dihydro-1H-inden-5-yl)ethynyl)-2,7-naphthyridin-3-yl)cyclopropanecarboxamide]	≤ 100	≤ 500
CNc1ncc(C#Cc2cccc3c2OCCC3)c2cc(NC(=O)C3CC3)ncc12 [Example 1014, N-(5-(chroman-8-ylethynyl)-8-(methylamino)-2,7-naphthyridin-3-yl)cyclopropanecarboxamide]	≤ 100	≤ 500
CNc1ncc(C#Cc2ccc3[nH]ccc3c2)c2cc(NC(=O)C3CC3)ncc12 [Example 1015, N-(5-((1H-indol-5-yl)ethynyl)-8-(methylamino)-2,7-naphthyridin-3-yl)cyclopropanecarboxamide]	≤ 100	≤ 500
CNc1ncc(C#Cc2nccc3ncsc23)c2cc(NC(=O)C3CC3)ncc12 [Example 1016, N-(8-(methylamino)-5-(thiazolo[5,4-c]pyridin-4-ylethynyl)-2,7-naphthyridin-3-yl)cyclopropanecarboxamide]	≤ 100	≤ 500
CNc1ncc(C#Cc2ccc3c(c2)C(=O)N(C)C3)c2cc(NC(=O)C3CC3)ncc12 [Example 1017, N-(5-((2-methyl-3-oxoisoindolin-5-yl)ethynyl)-8-(methylamino)-2,7-naphthyridin-3-yl)cyclopropanecarboxamide]	≤ 100	≤ 500
CNc1ncc(C#Cc2c(C)nn(C)c2C)c2cc(NC(=O)C3CC3)ncc12 [Example 1018, N-(8-(methylamino)-5-((1,3,5-trimethyl-1H-pyrazol-4-yl)ethynyl)-2,7-naphthyridin-3-yl)cyclopropanecarboxamide]	≤ 100	≤ 500
CNc1ncc(C#Cc2cccc3c2CCCC3=O)c2cc(NC(=O)C3CC3)ncc12 [Example 1019, N-(8-(methylamino)-5-((5-oxo-5,6,7,8-tetrahydronaphthalen-1-yl)ethynyl)-2,7-naphthyridin-3-yl)cyclopropanecarboxamide]	≤ 100	≤ 500
CNc1ncc(C#Cc2nc3ccccc3s2)c2cc(NC(=O)C3CC3)ncc12 [Example 1020, N-(5-(benzo[d]thiazol-2-ylethynyl)-8-(methylamino)-2,7-naphthyridin-3-yl)cyclopropanecarboxamide]	≤ 100	≤ 500
CNc1ncc(C#Cc2cnn3cccnc23)c2cc(NC(=O)C3CC3)ncc12 [Example 1021, N-(8-(methylamino)-5-(pyrazolo[1,5-a]pyrimidin-3-ylethynyl)-2,7-naphthyridin-3-yl)cyclopropanecarboxamide]	≤ 100	≤ 500
CNc1ncc(-c2nc3ccc(N4CCOC(COC)C4)cn3n2)c2cc(NC(=O)C3CC3)ncc12 (centres unmarked) [Example 1022, N-(5-(6-(2-(methoxymethyl)morpholino)-[1,2,4]triazolo[1,5-a]pyridin-2-yl)-8-(methylamino)-2,7-naphthyridin-3-yl)cyclopropanecarboxamide]	≤ 100	≤ 500
CNc1ncc(-c2cn3ccc(OC)cc3n2)c2cc(NC(=O)C3CC3)ncc12 [Example 1025]	≤ 100	> 500
CNc1ncc(-c2nc3ccc(N4CCOC(C(C)(C)O)C4)cn3n2)c2cc(NC(=O)C3CC3)ncc12 (centres unmarked) [Example 1026]	≤ 100	≤ 500
CNc1ncc(-c2nc3ccc(N4CCO[C@@H](C(C)(C)O)C4)cn3n2)c2cc(NC(=O)C3CC3)ncc12 [Example 1027]	≤ 100	≤ 500
CNc1ncc(-c2nc3ccc(N4CCO[C@H](C(C)(C)O)C4)cn3n2)c2cc(NC(=O)C3CC3)ncc12 [Example 1028]	≤ 100	≤ 500
CNc1ncc(-c2nc3ccc(N4CCOC(CO)C4)cn3n2)c2cc(NC(=O)C3CC3)ncc12 (centres unmarked) [Example 1029]	≤ 100	≤ 500
CNc1ncc(-c2nc3ccc(N4CCO[C@@H](CO)C4)cn3n2)c2cc(NC(=O)C3CC3)ncc12 [Example 1030]	≤ 100	≤ 500

Structure (SMILES)	Kd (TYK2 JH2) [nM]	IC50 [1] [nM]
CNc1ncc(-c2nc3ccc(N4CCO[C@H](CO)C4)cn3n2)c2cc(NC(=O)C3CC3)ncc12 [Example 1031]	≤ 100	≤ 500
CNc1ncc(-c2nc3ccc(N4CCO[C@@H](C(C)(C)OC)C4)cn3n2)c2cc(NC(=O)C3CC3)ncc12 [Example 1032]	≤ 100	≤ 500
CNc1ncc(-c2nc3ccc(N4CCO[C@H](C(C)(C)OC)C4)cn3n2)c2cc(NC(=O)C3CC3)ncc12 [Example 1033]	≤ 100	≤ 500
CNc1ncc(-c2nc3ccc(C4=CCOCC4)cn3n2)c2cc(NC(=O)C3CC3)ncc12 [Example 1034]	≤ 100	≤ 500
CNc1ncc(-c2nc3ccc(C4CCOCC4)cn3n2)c2cc(NC(=O)C3CC3)ncc12 [Example 1035]	≤ 100	≤ 500
CNc1ncc(-c2nc3c(F)cc(N4CCOCC4)cn3n2)c2cc(NC(=O)C3CC3)ncc12 [Example 1036]	≤ 100	≤ 500
CNc1ncc(-c2nc3ccc(N4CC(C)(O)C4)cn3n2)c2cc(NC(=O)C3CC3)ncc12 [Example 1037]	≤ 100	≤ 500
CNc1ncc(-c2nc3ccc(-n4cccn4)cn3n2)c2cc(NC(=O)C3CC3)ncc12 [Example 1038]	≤ 100	≤ 500
CNc1ncc(-c2nc3cccc(OC)n3n2)c2cc(NC(=O)C3CC3)ncc12 [Example 1039]	≤ 100	≤ 500
CNc1ncc(-c2nc3ccc(C(F)F)cn3n2)c2cc(NC(=O)C3CC3)ncc12 [Example 1040]	≤ 100	≤ 500
CNc1ncc(-c2nc3ccc(C(C)(C)O)cn3n2)c2cc(NC(=O)C3CC3)ncc12 [Example 1041]	≤ 100	≤ 500
CNc1ncc(-c2nc3ccc(-c4ccn(C)n4)cn3n2)c2cc(NC(=O)C3CC3)ncc12 [Example 1042]	≤ 100	≤ 500
CNc1ncc(-c2nc3ccc(N4CCOC(C(C)O)C4)cn3n2)c2cc(NC(=O)C3CC3)ncc12 (centres unmarked) [Example 1043]	≤ 100	≤ 500
CNc1ncc(-c2nc3ccc(N4CCOC(C(C)(C)F)C4)cn3n2)c2cc(NC(=O)C3CC3)ncc12 (centres unmarked) [Example 1048]	≤ 100	≤ 500
CNc1ncc(-c2cn3cc(N4CCO[C@H](C)C4)ccc3n2)c2cc(NC(=O)C3CC3)ncc12 [Example 1051]	≤ 100	≤ 500
CNc1ncc(-c2cn3cc(N4CCO[C@@H](C)C4)ccc3n2)c2cc(NC(=O)C3CC3)ncc12 [Example 1052]	≤ 100	≤ 500
CNc1ncc(-c2nc3ccc(N4CCOC(CCCO)C4)cn3n2)c2cc(NC(=O)C3CC3)ncc12 (centres unmarked) [Example 1053]	≤ 100	≤ 500
CNc1ncc(-c2cc3cc(OC)ccc3o2)c2cc(NC(=O)C3CC3)ncc12 [Example 1054]	≤ 100	≤ 500
CNc1ncc(-c2cn3cc(C)cc(F)c3n2)c2cc(NC(=O)C3CC3)ncc12 [Example 1055]	≤ 100	≤ 500
CNc1ncc(-c2cn3cc(C)ccc3n2)c2cc(NC(=O)C3CC3)ncc12 [Example 1056]	≤ 100	≤ 500
CNc1ncc(-c2nc3cc(N4CCOC(C(F)F)C4)ccc3o2)c2cc(NC(=O)[C@H]3C[C@H]3C)ncc12 (stereo partly drawn) [Example 1057, (1S,2R)—N-(5-(5-(2-(difluoromethyl)morpholino)benzo[d]oxazol-2-yl)-8-(methylamino)-2,7-naphthyridin-3-yl)-2-methylcyclopropane-1-carboxamide]	≤ 100	≤ 500
